These are literature values, as cited in patent US20240423900A1, “ANHYDROUS BARRIER AND ANTIOXIDANT COMPOSITIONS” (Baek Clinical Inc., priority 2023, published 2024).

The conditions of series [1]: general statement, no test described.
Series [2] relates to human skin. To be noted: general statement, no test described.

Regarding `CC(C)CCCC(C)CCCC(C)CCCCC(C)CCCC(C)CCCC(C)C` (centres unmarked) [Squalane, squalane], the acute toxicity result in series [1] is reported as “low acute toxicity”. For the same compound, the “human skin irritant or sensitizer” value in series [2] was “not a significant human skin irritant or sensitizer”.
